Earlier results as cited in US20110159118A1, “Screening Method (Metabolite Grid) for Therapeutic Extracts and Molecules for Diabetes” (priority 2000, published 2011).

Legend:
hyperglycemic rats = details: effect comparable to metformin
[1] = test system: streptozotocin-diabetic mice; details: doses of 3.4-13.4 mg/kg, 6 h after the administration

Q: Which “blood glucose levels, control versus treated rats” value (alloxan diabetic rats; 30 mg/kg, i.p., twice daily for 3 days, begun 92 hr after alloxan) does the source give for Oc1cc(O)c2c(c1)O[C@H](c1ccc(O)c(O)c1)[C@H](O)C2 [(−)-Epicatechin, (−)-epicatechin] here?
A: no significant difference

Q: What about the hyperglycemia (alloxan diabetic rats; given before or within 24 hr after the dose of alloxan) of the same compound?
A: reverse hyperglycemia

Q: Which blood glucose level (hyperglycemic rats) does the source give for COc1cc(O)cc2c1C(=O)C(O)(Cc1ccc(O)cc1)O2 (stereo not shown) [Marsupsin, marsupsin] here?
A: significantly lowered

Q: For gymnemic acid IV [Gymnemic acids], which “reduced the blood glucose levels” value [1] is on record?
A: 13.5-60.0%
